A short description of assay [1]: Cytotoxicity against human QSG7701 cells after 48 hrs by MTT assay. It is filed as cell-based. Particulars: QSG7701, 48 h.
A further assay deals with PC-3. Nature of the assay: Cytotoxicity against human PC3 cells after 48 hrs by MTT assay. It is filed as functional, cell-based. The settings on record: PC-3, 48 h. Background: Tetrazolium assays rely on reduction of a dye to a coloured formazan, in cell work by metabolically active cells.
In the next assay the test system is HCT-116. Nature of the assay: cells. Particulars: Homo sapiens, HCT-116, 48 h.
In a further assay the test system is A549. Nature of the assay: cells. The settings on record: Homo sapiens, A549, 48 h.
The test system of the next assay is HepG2. Nature of the assay: cells. Particulars: Homo sapiens, HepG2, 48 h.
The next assay relates to HL-60. Nature of the assay: cells. The settings on record: Homo sapiens, HL-60, 48 h.
The next assay has as its system K562. Nature of the assay: cells. Particulars: Homo sapiens, K562, 48 h.
For assay [2], the target named is T1, Vascular endothelial growth factor receptor 2 (Homo sapiens, UniProt P35968). Nature of the assay: Inhibition of VEGF-induced VEGFR2 phosphorylation in human HCT116 cells at 0.2 to 20 uM treated 30 mins before VEGF challenge measured after 2 hrs by immuno blot analysis. Type of assay: cell-based. The settings on record: HCT-116.
The target of assay [3] is T1, Vascular endothelial growth factor receptor 2. In words: Inhibition of human VEGFR2 preincubated for 10 mins before ATP addition measured after 45 mins.

The source made the active and inactive calls. No cut-off for these calls is given here. Where only a bound is given, the exact number is not on record here.

T1 sequence (P35968 whole entry): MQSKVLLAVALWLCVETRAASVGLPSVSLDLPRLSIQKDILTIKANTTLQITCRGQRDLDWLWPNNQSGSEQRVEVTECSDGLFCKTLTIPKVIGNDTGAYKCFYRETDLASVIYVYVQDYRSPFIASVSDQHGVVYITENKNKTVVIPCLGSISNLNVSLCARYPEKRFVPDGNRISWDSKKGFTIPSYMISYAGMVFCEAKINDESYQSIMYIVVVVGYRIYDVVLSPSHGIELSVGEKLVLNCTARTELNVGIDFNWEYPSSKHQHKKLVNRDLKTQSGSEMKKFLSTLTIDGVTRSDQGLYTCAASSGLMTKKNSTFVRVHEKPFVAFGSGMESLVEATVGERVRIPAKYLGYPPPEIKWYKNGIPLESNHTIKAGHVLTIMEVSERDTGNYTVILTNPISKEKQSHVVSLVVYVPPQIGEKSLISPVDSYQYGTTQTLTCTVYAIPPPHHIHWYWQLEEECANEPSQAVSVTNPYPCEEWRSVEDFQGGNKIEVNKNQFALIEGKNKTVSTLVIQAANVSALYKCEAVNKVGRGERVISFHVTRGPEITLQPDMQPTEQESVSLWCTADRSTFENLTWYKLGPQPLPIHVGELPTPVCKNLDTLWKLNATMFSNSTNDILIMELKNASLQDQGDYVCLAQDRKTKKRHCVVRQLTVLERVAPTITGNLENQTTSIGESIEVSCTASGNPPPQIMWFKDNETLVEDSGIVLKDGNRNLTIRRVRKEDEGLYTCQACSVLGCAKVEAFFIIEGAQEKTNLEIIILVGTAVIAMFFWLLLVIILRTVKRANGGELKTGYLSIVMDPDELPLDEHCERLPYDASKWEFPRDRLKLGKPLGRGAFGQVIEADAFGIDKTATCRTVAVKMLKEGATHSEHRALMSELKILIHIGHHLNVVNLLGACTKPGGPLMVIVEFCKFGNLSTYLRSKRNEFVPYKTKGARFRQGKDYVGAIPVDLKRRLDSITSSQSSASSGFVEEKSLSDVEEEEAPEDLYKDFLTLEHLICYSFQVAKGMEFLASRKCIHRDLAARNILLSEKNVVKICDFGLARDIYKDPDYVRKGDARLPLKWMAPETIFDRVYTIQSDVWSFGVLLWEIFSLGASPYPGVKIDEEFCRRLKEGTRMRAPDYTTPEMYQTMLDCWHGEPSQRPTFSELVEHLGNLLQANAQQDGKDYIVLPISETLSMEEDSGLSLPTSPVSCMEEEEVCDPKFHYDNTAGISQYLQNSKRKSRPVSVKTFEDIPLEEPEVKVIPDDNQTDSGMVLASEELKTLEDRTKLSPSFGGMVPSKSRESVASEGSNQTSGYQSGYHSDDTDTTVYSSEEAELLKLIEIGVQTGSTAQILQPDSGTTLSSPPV
Description for A549: Cytotoxicity against human A549 cells after 48 hrs by MTT assay
Description for HCT-116: Cytotoxicity against human HCT116 cells after 48 hrs by MTT assay
Description for HL-60: Cytotoxicity against human HL60 cells after 48 hrs by MTT assay
Description for HepG2: Cytotoxicity against human HepG2 cells after 48 hrs by MTT assay
Description for K562: Cytotoxicity against human K562 cells after 48 hrs by MTT assay

By IC50 is commonly meant the point on the concentration scale where inhibition reaches its midpoint. Low values mean inhibition by little substance, high ones a need for much substance. For the compound `O=C1Nc2ccc(F)cc2/C1=C/c1ccc(C(=O)NCCN2CCCCC2)c(=O)[nH]1`, the IC50 in [1] was more than 50 µM; in the assay on PC-3, 28 µM; in the assay with HCT-116, 9.5 µM; with A549, 15.2 µM; in the assay with HepG2 it was 18.9 µM; with HL-60, 32.7 µM. This compound also came in with a concentration for half-maximal inhibition (IC50) in the assay on K562 of 26.8 µM.
Regarding `O=C1Nc2ccc(F)cc2/C1=C/c1c[nH]c2cc(F)ccc12`, the IC50 in assay [1] is more than 50 µM; in the assay with PC-3, more than 50 µM; in the assay with HCT-116, 28 µM; with A549, more than 50 µM; in the assay with HepG2, more than 50 µM; in the assay with HL-60, 43.1 µM. Further, the IC50 in the assay on K562 was more than 50 µM.
Consider `O=C1Nc2ncccc2/C1=C/c1c[nH]c2ccc(F)cc12`, for which the IC50 was more than 50 µM in assay [1]; more than 50 µM in the assay on PC-3; 17.8 µM in the assay with HCT-116; more than 50 µM with A549; more than 50 µM in the assay with HepG2; 48 µM in the assay with HL-60. The compound also returned a half-maximal inhibitory concentration (IC50) in the assay with K562 of 30 µM.
In the case of `O=C1Nc2ccc(F)cc2/C1=C/c1ccc(C(=O)NCCN2CCOCC2)c(=O)[nH]1`, the IC50 in [1] is more than 50 µM; in the assay with PC-3, 35.6 µM; with HCT-116, 12.8 µM; with A549, 22 µM; in the assay with HepG2, 35 µM; in the assay on HL-60, 38.9 µM. The same compound came in with an IC50 in the assay with K562 of 45.1 µM.
As for `CCc1cccc2c(/C=C3\C(=O)Nc4ncccc43)c[nH]c12`, the IC50 in assay [1] is 42.6 µM; with PC-3, more than 50 µM; with HCT-116, 13.6 µM; in the assay on A549, 17.1 µM; in the assay with HepG2, 10.5 µM; in the assay on HL-60, 37.4 µM. The compound further showed a half-inhibitory concentration (IC50) in the assay on K562 of 27.7 µM.
Consider `Cc1[nH]c(/C=C2\C(=O)Nc3ccncc32)c(C)c1C(=O)N1CCN(CCO)CC1`, for which the IC50 (in assay [1]; in the assay on PC-3; with HCT-116; with A549; with HepG2; in the assay on HL-60) was more than 50 µM throughout. Moreover, the IC50 in the assay on K562 is more than 50 µM.
Regarding `O=C1Nc2cccnc2C1=Cc1c[nH]c2ccc(F)cc12` (mixture of isomers), the IC50 (in assay [1]; in the assay on PC-3; with HCT-116; in the assay with A549; with HepG2; in the assay with HL-60) was more than 50 µM throughout. In the assay on K562, this compound yielded an IC50 of more than 50 µM.
Take `Cc1[nH]c(/C=C2\C(=O)Nc3ncccc32)c(C)c1C(=O)N1CCN(CCO)CC1`: the IC50 (in assay [1]; with PC-3; in the assay with HCT-116; in the assay on A549; in the assay on HepG2; with HL-60) was more than 50 µM throughout. In the assay with K562, the half-inhibitory concentration (IC50) is more than 50 µM.
Take `O=C1Nc2ncccc2/C1=C/c1c[nH]c2cc(F)ccc12`: the IC50 in [1] is more than 50 µM; in the assay on PC-3, more than 50 µM; with HCT-116 it was 22.3 µM; in the assay with A549, 31.1 µM; in the assay on HepG2, 15.4 µM; in the assay with HL-60, 34.1 µM. Also, the IC50 in the assay with K562 was more than 50 µM.
For the compound `CCN(CC)CCNC(=O)c1c(C)[nH]c(/C=C2\C(=O)Nc3ccc(F)cc32)c1C` [SUNITINIB], the IC50 in [1] is more than 50 µM; in the assay with PC-3 it was 25.1 µM; in the assay with HCT-116 it was 6.1 µM; with A549, 18.5 µM; in the assay with HepG2, 15.4 µM; in the assay on HL-60 it was 15.5 µM. For the same compound, the half-inhibitory concentration (IC50) with K562 turned out to be 21.9 µM.
With `O=C1Nc2ccc(F)cc2/C1=C/c1c[nH]c2ccc(F)cc12`, the IC50 in assay [1] is more than 50 µM; in the assay on PC-3 it was more than 50 µM; in the assay on HCT-116, 42.1 µM; in the assay with A549, more than 50 µM; in the assay on HepG2 it was more than 50 µM; with HL-60 it was more than 50 µM. In addition, the IC50 with K562 was more than 50 µM.
As to `Cc1[nH]c(/C=C2\C(=O)Nc3ccncc32)c(C)c1C(=O)N1CCN(C)CC1`, the IC50 (in assay [1]; in the assay on PC-3; in the assay with HCT-116; with A549; in the assay on HepG2; with HL-60) was more than 50 µM in each case. Also, the IC50 with K562 was more than 50 µM.
Consider `CN(C)CCNC(=O)c1ccc(/C=C2\C(=O)Nc3ccc(F)cc32)[nH]c1=O`, for which the IC50 in [1] is more than 50 µM; in the assay on PC-3, 25.2 µM; with HCT-116, 5.3 µM; in the assay on A549, 12.6 µM; in the assay on HepG2, 17.1 µM; in the assay with HL-60, 24.7 µM. For the same compound, inhibition with K562 was half-maximal at 19.3 µM (IC50).
As for `O=C1Nc2cccnc2C1=Cc1c[nH]c2cc(F)ccc12` (mixture of isomers), the IC50 (in assay [1]; in the assay on PC-3; with HCT-116; in the assay on A549; with HepG2; in the assay with HL-60) was more than 50 µM in each case. This compound gave an IC50 in the assay with K562 of more than 50 µM.
With `Cc1[nH]c(/C=C2\C(=O)Nc3ncccc32)c(C)c1C(=O)NCCN1CCCCC1`, the IC50 is more than 50 µM in assay [1]; 25.6 µM with PC-3; 18.1 µM in the assay on HCT-116; 25.4 µM with A549; 38.6 µM with HepG2; 30.2 µM in the assay on HL-60. Besides, the IC50 in the assay with K562 amounted to 18 µM.
Turning to `CCc1cccc2c(C=C3C(=O)Nc4cccnc43)c[nH]c12` (mixture of isomers), the IC50 in assay [1] was 44.8 µM; in the assay with PC-3 it was more than 50 µM; with HCT-116, 22.3 µM; in the assay with A549 it was 32.5 µM; in the assay on HepG2, more than 50 µM; in the assay on HL-60, 34.2 µM. In the assay with K562, the IC50 is more than 50 µM.
Consider `CCc1cccc2c(/C=C3\C(=O)Nc4ccc(F)cc43)c[nH]c12`, for which the IC50 was more than 50 µM in assay [1]; 26.4 µM in the assay on PC-3; 6.58 µM in assay [3]; 8.6 µM with HCT-116; 11 µM in the assay with A549; 28.1 µM in the assay with HepG2. In addition, the IC50 in the assay on HL-60 came out at 26.7 µM; in the assay on K562, 15.8 µM. The inhibition result in assay [2] was “Active”.
With `Cc1[nH]c(/C=C2\C(=O)Nc3ccncc32)c(C)c1C(=O)NCCN(C)C`, the IC50 was more than 50 µM in assay [1]; more than 50 µM with PC-3; 0.06 µM in assay [3]; 9.1 µM with HCT-116; 12.5 µM with A549; 8.6 µM in the assay on HepG2. The IC50 in the assay on HL-60 amounted to 34.8 µM; in the assay on K562, 15.7 µM. In addition, in [2], the inhibition entry is “Active”.
As to `CN(C)CCNC(=O)c1ccc(/C=C2\C(=O)Nc3ncccc32)[nH]c1=O`, the half-maximal inhibitory concentration (IC50) in assay [1] was more than 50 µM; in the assay with PC-3, 26 µM; in the assay with HCT-116 it was 4.3 µM; with A549, 13.7 µM; with HepG2, 27.3 µM; in the assay with HL-60, 34.3 µM. In addition, the IC50 in the assay with K562 came to 21.3 µM.
For `CCN(CC)CCNC(=O)c1c(C)[nH]c(/C=C2\C(=O)Nc3ccncc32)c1C`, the IC50 in [1] was more than 50 µM; in the assay on PC-3 it was more than 50 µM; in the assay on HCT-116 it was 11 µM; with A549, 13.9 µM; with HepG2, 16.4 µM; with HL-60, 35 µM. Besides, the IC50 in the assay with K562 was 14.8 µM.
In the case of `Cc1[nH]c(/C=C2\C(=O)Nc3cccnc32)c(C)c1C(=O)NCCN(C)C`, the IC50 in assay [1] was more than 50 µM; with PC-3, 47 µM; in the assay with HCT-116, 12.4 µM; in the assay on A549 it was 16.7 µM; with HepG2, 20.2 µM; with HL-60, 45.9 µM. This compound also displayed an IC50 in the assay with K562 of 24.1 µM.
`Cc1[nH]c(/C=C2\C(=O)Nc3ncccc32)c(C)c1C(=O)NCCN(C)C`: the IC50 was more than 50 µM in [1]; 49.5 µM with PC-3; 9.2 µM in the assay on HCT-116; 21 µM in the assay on A549; 18.3 µM in the assay on HepG2; 48.8 µM in the assay with HL-60. This compound also had an IC50 with K562 of 19.8 µM.
In the case of `CCN(CC)CCNC(=O)c1ccc(/C=C2\C(=O)Nc3cccnc32)[nH]c1=O`, the IC50 is more than 50 µM in assay [1]; 30.3 µM in the assay with PC-3; 8.2 µM with HCT-116; 11.8 µM with A549; 12.6 µM in the assay with HepG2; 32.9 µM in the assay on HL-60. This compound also returned an IC50 with K562 of 25.3 µM.
For the compound `Cc1[nH]c(/C=C2\C(=O)Nc3ncccc32)c(C)c1C(=O)NCCN1CCOCC1`, the IC50 in assay [1] is more than 50 µM; with PC-3, more than 50 µM; in the assay with HCT-116 it was 25.5 µM; with A549, 29.2 µM; with HepG2 it was more than 50 µM; in the assay with HL-60, 27.8 µM. The same compound gave an IC50 in the assay on K562 of more than 50 µM.
Take `Cc1[nH]c(/C=C2\C(=O)Nc3ncccc32)c(C)c1C(=O)N1CCN(C)CC1`: the IC50 in [1] was more than 50 µM; with PC-3, more than 50 µM; in the assay with HCT-116, 35 µM; with A549, 48.2 µM; with HepG2, 37.3 µM; with HL-60, 40 µM. In the assay with K562, this compound returned an IC50 of more than 50 µM.

For the origin of these results see ChEMBL document CHEMBL1914337, “Synthesis and biological evaluation of 2-indolinone derivatives as potential antitumor agents” (Eur J Med Chem, 2011).
